Among the data in ChEMBL document CHEMBL3826875, “2,8-Disubstituted-1,6-Naphthyridines and 4,6-Disubstituted-Isoquinolines with Potent, Selective Affinity for CDK8/19” (ACS Med Chem Lett, 2016) are Papp A→B and inhibition values, retold here.

The structures appear in SMILES notation.

Test system in one data set: not listed separately
Description: in vitro. The settings on record: human, Caco-2.
By Papp A→B is commonly meant how fast a substance crosses the layer from the apical side. Read a high Papp A→B as ready permeation. `Cn1cc(-c2ccc(-c3cnc(N)c4ccc(N5CCOC5=O)cc34)cc2)cn1` had a Papp A→B at 2 h, 1 µM of 20.6 ×10⁻⁶ cm/s.
The compound `Cn1cc(-c2ccc(-c3cnc(N)c4ccc(C(=O)N5CCNCC5)nc34)cc2)cn1` came in with a Papp A→B at 2 h, 1 µM of 0.96 ×10⁻⁶ cm/s.
On the same count and under the same terms, in the case of `COC1(C)CN(C(=O)c2ccc3c(N)ncc(-c4ccc(-c5cnn(C)c5)cc4)c3n2)C1` it was 40.1 ×10⁻⁶ cm/s; in that of `Cn1cc(-c2ccc(-c3cnc(N)c4ccc(C(=O)NC5CC5)cc34)cc2)cn1`, 32.5 ×10⁻⁶ cm/s; in that of `Cn1cc(-c2ccc(-c3cnc(N)c4ccc(C(=O)N5CC(C)(F)C5)cc34)cc2)cn1`, 25.8 ×10⁻⁶ cm/s.
On the same count and under the same terms, in the case of `Cn1cc(-c2ccc(-c3cnc(N)c4ccc(C(=O)N5CCOCC5)nc34)cc2)cn1` it was 34 ×10⁻⁶ cm/s.
`COC1(C)CN(C(=O)c2ccc3c(N)ncc(-c4ccc(-c5cnn(C)c5)cc4)c3c2)C1`: the Papp A→B at 2 h, 1 µM is 25.2 ×10⁻⁶ cm/s.
The same measure, in the same setting: in the case of `COC1CN(C(=O)c2ccc3c(N)ncc(-c4ccc(-c5cnn(C)c5)cc4)c3n2)C1` it was 28.6 ×10⁻⁶ cm/s.
Still for that read-out and setting: in the case of `Cn1cc(-c2ccc(-c3cnc(N)c4ccc(C(=O)N5CC(C)(F)C5)nc34)cc2)cn1` it was 27.6 ×10⁻⁶ cm/s; in that of `Cn1cc(-c2ccc(-c3cnc(N)c4ccc(C(=O)N5CC(F)(F)C5)cc34)cc2)cn1`, 39.7 ×10⁻⁶ cm/s.
For the compound `Cn1cc(-c2ccc(-c3cnc(N)c4ccc(C(=O)N5CC(F)(F)C5)nc34)cc2)cn1`, the Papp A→B at 2 h, 1 µM was 23.9 ×10⁻⁶ cm/s.
Turning to `Cn1cc(-c2ccc(-c3cnc(N)c4ccc(C(=O)N5CCC5)cc34)cc2)cn1`, the Papp A→B at 2 h, 1 µM was 27.2 ×10⁻⁶ cm/s.
In the case of `Cn1cc(-c2ccc(-c3cnc(N)c4ccc(C(=O)N5CCC5)nc34)cc2)cn1`, the apical-to-basolateral permeability (Papp A→B) at 2 h, 1 µM was determined as 42.6 ×10⁻⁶ cm/s.

The species entered for another data set is Mus musculus.
Assay: not given
The settings on record: SW-620, 5 mg/kg.
`COC1CN(C(=O)c2ccc3c(N)ncc(-c4ccc(-c5cnn(C)c5)cc4)c3n2)C1`: the inhibition entry was “tde”.
